Target: T1, VEGFR2 (Homo sapiens, UniProt P35968)
T1 construct: gene KDR; recombinant VEGFR2 (amino acids 789 to end)
Experiment: cell-free ADP-Glo kinase assay at […] ATP, with ATP competition at […] ATP
Type: biochemical

T1 sequence (P35968 789-1356): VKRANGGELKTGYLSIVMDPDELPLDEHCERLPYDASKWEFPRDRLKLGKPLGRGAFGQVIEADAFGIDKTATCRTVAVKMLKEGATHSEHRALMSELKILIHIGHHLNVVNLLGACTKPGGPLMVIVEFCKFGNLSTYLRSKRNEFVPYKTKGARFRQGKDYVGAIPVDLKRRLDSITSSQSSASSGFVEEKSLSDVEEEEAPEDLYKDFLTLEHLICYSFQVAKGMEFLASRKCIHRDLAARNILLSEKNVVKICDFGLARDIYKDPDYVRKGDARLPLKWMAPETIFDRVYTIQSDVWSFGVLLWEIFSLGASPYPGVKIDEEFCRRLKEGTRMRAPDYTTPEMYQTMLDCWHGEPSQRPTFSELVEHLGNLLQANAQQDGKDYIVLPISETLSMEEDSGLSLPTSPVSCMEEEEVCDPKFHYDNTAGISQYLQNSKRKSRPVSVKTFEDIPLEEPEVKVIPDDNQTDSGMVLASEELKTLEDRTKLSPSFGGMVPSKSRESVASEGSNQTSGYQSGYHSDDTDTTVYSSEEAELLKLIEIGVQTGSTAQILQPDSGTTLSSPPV

**Q.** Which IC50 does the source give for `Oc1c(I)cc(Cl)c2cccnc12` [clioquinol] here?
**A.** 34.6 µM
